The values below are quoted from earlier work in US20070053968A1 (Wyeth, priority 2005, published 2007).

Data set [1] addresses neuronal norepinephrine re-uptake (Homo sapiens, UniProt P23975).
The next data set deals with dopamine re-uptake (Homo sapiens, UniProt Q01959).
For data set [2] the following is noted: compared with ODV free base.
The conditions of data set [3]: compared with ODV free base. The source holds these as a separate data set.
The conditions of data set [4]: oral administration, versus venlafaxine, ODV or other salts of ODV.
Data set [5] deals with H1-histaminergic receptors (Homo sapiens, UniProt P35367).
H1-histaminergic receptors, sequence (P35367 whole entry): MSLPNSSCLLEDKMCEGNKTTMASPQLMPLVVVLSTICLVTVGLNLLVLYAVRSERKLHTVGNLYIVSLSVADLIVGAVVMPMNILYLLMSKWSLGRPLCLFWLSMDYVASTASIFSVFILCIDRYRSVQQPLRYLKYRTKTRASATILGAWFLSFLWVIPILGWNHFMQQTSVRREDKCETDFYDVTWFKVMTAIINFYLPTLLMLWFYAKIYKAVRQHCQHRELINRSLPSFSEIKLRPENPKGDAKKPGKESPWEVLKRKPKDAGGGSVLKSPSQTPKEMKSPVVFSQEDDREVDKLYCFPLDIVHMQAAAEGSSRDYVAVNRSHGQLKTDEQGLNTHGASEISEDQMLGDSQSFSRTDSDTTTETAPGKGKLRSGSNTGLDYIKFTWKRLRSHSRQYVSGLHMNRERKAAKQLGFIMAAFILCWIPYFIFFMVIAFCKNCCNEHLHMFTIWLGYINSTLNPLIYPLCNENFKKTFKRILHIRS
The conditions of data set [6]: versus venlafaxine.

dopamine re-uptake, sequence (Q01959 whole entry): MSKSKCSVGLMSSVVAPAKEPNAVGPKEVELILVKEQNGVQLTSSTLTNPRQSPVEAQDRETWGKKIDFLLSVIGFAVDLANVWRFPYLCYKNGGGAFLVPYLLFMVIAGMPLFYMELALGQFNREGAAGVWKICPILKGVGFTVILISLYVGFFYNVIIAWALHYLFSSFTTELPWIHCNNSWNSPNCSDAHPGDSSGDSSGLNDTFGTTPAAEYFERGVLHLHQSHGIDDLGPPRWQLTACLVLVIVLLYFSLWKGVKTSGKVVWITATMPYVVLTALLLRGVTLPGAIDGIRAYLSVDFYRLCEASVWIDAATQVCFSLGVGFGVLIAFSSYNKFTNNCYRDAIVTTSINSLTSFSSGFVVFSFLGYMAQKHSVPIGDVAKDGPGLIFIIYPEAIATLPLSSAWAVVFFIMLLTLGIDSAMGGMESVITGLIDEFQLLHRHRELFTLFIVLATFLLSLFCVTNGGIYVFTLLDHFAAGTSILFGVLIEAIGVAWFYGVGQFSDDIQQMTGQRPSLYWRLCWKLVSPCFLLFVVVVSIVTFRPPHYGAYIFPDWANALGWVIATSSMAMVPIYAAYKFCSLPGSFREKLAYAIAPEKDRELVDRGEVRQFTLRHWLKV
neuronal norepinephrine re-uptake, sequence (P23975 whole entry): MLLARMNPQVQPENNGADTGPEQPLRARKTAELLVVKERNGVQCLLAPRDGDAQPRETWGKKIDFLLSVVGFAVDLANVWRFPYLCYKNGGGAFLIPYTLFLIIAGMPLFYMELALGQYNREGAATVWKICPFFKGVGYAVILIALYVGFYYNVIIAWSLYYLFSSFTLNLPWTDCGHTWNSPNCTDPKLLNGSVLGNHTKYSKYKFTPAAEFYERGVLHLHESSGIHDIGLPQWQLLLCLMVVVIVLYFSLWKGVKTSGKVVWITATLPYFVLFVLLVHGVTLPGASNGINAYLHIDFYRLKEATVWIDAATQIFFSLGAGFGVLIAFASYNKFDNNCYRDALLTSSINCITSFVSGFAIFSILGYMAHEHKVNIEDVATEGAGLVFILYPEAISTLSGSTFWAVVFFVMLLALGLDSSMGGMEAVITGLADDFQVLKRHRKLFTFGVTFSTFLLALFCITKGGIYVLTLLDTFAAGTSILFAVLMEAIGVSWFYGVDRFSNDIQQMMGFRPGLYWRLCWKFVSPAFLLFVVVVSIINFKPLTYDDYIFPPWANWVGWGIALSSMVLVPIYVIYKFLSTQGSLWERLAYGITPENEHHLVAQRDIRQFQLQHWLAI

Turning to `COc1ccc(C(CN(C)C)C2(O)CCCCC2)cc1` (racemic) [venlafaxine, (±)-1-[2-(dimethylamino)-1-(4-methoxyphenyl)ethyl]-cyclohexanol], the “inhibition of neuronal norepinephrine re-uptake” value in [1] was “potent inhibitors”. For the same molecule, the “inhibition of dopamine re-uptake” value on dopamine re-uptake is recorded as “weak inhibitors”. In the data set on α1-adrenergic receptors, the “affinity for α1-adrenergic receptors” value is on record as “no significant affinity”.
In the case of `CN(C)CC(c1ccc(O)cc1)C1(O)CCCCC1.O=C(O)CCC(=O)O` (centres unmarked) [ODV succinate], the permeability result in [2] is “improved”. Further, the bioavailability result in data set [3] is recorded as “improved”. Besides, the “incidence of nausea, vomiting, diarrhea, abdominal pain, headache, vaso-vagal malaise, and/or trismus” value in [4] is reported as “lower incidence”.
As for `CN(C)CC(c1ccc(O)cc1)C1(O)CCCCC1` (centres unmarked) [ODV], the “inhibition of dopamine re-uptake” value at dopamine re-uptake is given as “weak inhibitors”. Further, in [5], the “affinity for H1-histaminergic receptors” value is on record as “no significant affinity”. Further, the “affinity for α1-adrenergic receptors” value with α1-adrenergic receptors was “no significant affinity”. The “solubility compared with venlafaxine” value in data set [6] was “more soluble”. The “affinity for muscarinic receptors” value in the data set with muscarinic receptors is “no significant affinity”.
